In ChEMBL document CHEMBL1146821, “Pyridazines. Part 36: Synthesis and antiplatelet activity of 5-substituted-6-phenyl-3(2H)-pyridazinones” (Bioorg Med Chem Lett, 2004):

species: Homo sapiens; test: The antiplatelet activity by the turbidimetric method in washed human platelets using thrombin as agonist; Precipitates under the conditions of the study.; format: functional

SMILES	IC50
O=Cc1ccc(-c2cc(O)nnc2-c2ccccc2)cc1	Precipitates under the conditions of the study
Oc1cc(-c2ccc(Cl)cc2)c(-c2ccccc2)nn1	Precipitates under the conditions of the study
Oc1cc(-c2ccccc2)c(-c2ccccc2)nn1	Precipitates under the conditions of the study

species: Homo sapiens; test: The antiplatelet activity by the turbidimetric method in washed human platelets using thrombin as agonist; Promotes platelet aggregation.; format: functional

IC50	SMILES
Promotes platelet aggregation	Oc1cc(Oc2ccccc2)c(-c2ccccc2)nn1

species: Homo sapiens; test: The antiplatelet activity was tested by the turbidimetric method in washed human platelets using thrombin as agonist.; format: functional

IC50 [µM]	SMILES
> 1000	COCCOC(=O)/C=C/c1cc(O)nnc1-c1ccccc1
152	Cc1ccc(-c2cc(O)nnc2-c2ccccc2)cc1
> 1000	N#C/C=C/c1cc(=O)[nH]nc1-c1ccccc1
15	Oc1cc(Sc2ccccc2)c(-c2ccccc2)nn1
> 1000	OCCCC#Cc1cc(O)nnc1-c1ccccc1
25	O=C(/C=C/c1cc(=O)[nH]nc1-c1ccccc1)c1ccccc1
500	C#Cc1cc(O)nnc1-c1ccccc1
635	Oc1cc(-c2ccco2)c(-c2ccccc2)nn1
500	O=C1C(CC[S+]([O-])c2ccccc2)C(=O)N(c2ccccc2)N1c1ccccc1 (stereo unspecified) [SULFINPYRAZONE]
> 1000	CCOC(C#Cc1cc(O)nnc1-c1ccccc1)OCC
> 2000	OCCC#Cc1cc(O)nnc1-c1ccccc1
45	COC(=O)C(=Cc1cc(=O)[nH]nc1-c1ccccc1)C(=O)OC
> 1000	OCC#Cc1cc(O)nnc1-c1ccccc1
20	CCOC(=O)C(=Cc1cc(=O)[nH]nc1-c1ccccc1)C(=O)OCC
> 1000	COC(=O)/C=C/c1cc(O)nnc1-c1ccccc1

species: Homo sapiens; test: The antiplatelet activity by the turbidimetric method in washed human platelets using thrombin as agonist; NA is inactive; format: functional

IC50	SMILES
Not Active	CCOC(=O)/C=C/c1cc(=O)[nH]nc1-c1ccccc1
Not Active	O=c1cc(/C=C/c2ccccc2)c(-c2ccccc2)n[nH]1
